Data on four compounds can be found in US20240398706A1, “INJECTABLE FORMULATIONS OF APREPITANT” (Good Health, LLC, priority 2021, published 2024).

The conditions of series [1]: after oral administration; cited from earlier work.
Series [2] can be described thus: pH and clarity of 5.55 mg/mL sodium oleate solution. Type of series: physicochemical. As to conditions: sodium oleate 5.55 mg/mL solution. The method, then:
After the initial pH measurement discussed above, the compositions of this embodiment have a pH value of at least 7.5. In some embodiments the PH is in the range of between 7.5-10.5 or between 8.5-10.8. This pH value is observed a short period, e.g. a few days, after formation of the emulsion, and is to be contrasted with the initial pH value which is measured substantially immediately after the formation of the emulsion. Preferably, the fatty acid content of the oleate is high, e.g. at least about 80% and the alkalinity of oleate when tested as an aqueous solution is also relatively high, e.g. at least about pH of 10.3 of 0.55% W/V solution in water.

Series [3] can be described thus: Emulsion formation of Form-81 with sodium oleate from different sources. The series is classed as physicochemical. As to conditions: Form-81 with sodium benzoate, after mixing oil and water phases and stirring. The method, then: The solution was heated to about 55-68° C., while stirring aprepitant was added and continued stirring until all of the drug is dissolved. After cooling to room temperature, Sodium oleate was added to mixture and stirred to get uniform dispersion. Ethanol quantity adjusted by adding ethanol to mixture to compensate loss. Weight of container was recorded at each stage.
Oil phase slowly added to water phase slowly while water phase stirred at 1000 RPM using overhead stirrer.
Coarse emulsion was milled using microfluidizer (Microfluidizer LM-25/30), […].

On to `C[C@@H](O[C@H]1OCCN(Cc2n[nH]c(=O)[nH]2)[C@H]1c1ccc(F)cc1)c1cc(C(F)(F)F)cc(C(F)(F)F)c1` [Aprepitant], for which the oral bioavailability result in series [1] is reported as “about 69%”.
`CCCCCCCC/C=C\CCCCCCCC(=O)[O-].[Na+]` [Sodium Oleate from Doosan, South Korea, Sodium Oleate]: the Clarity entry in series [2] is “Clear solution”. In series [3], the Emulsion formation entry is reported as “slightly viscous emulsions”.
With `CCCCCCCC/C=C\CCCCCCCC(=O)[O-].[Na+]` [Sodium Oleate from Lipoid, Germany, Sodium Oleate], in series [2], the Clarity result is recorded as “Hazy solution” and the “pH of 5.55 mg/mL solution” value stood at 10.36. In addition, the Emulsion formation entry in series [3] is given as “slightly viscous emulsions”.
With `CCCCCCCC/C=C\CCCCCCCC(=O)[O-].[Na+]` [Sodium Oleate from Loba Chemie, India, Sodium Oleate], in series [2], the Clarity entry is “Clear solution” and the “pH of 5.55 mg/mL solution” value is given as 10.78. In series [3], the Emulsion formation result is on record as “Free flowing emulsion”. Also, the Emulsion formation result in series [3] (listed as oleate from Loba Chemie) was “free-flowing emulsion”.
